Patent publication US7074789B2, “Kinase inhibitors” (Amgen Inc., priority 1999, dated 2006)

What was measured:
Format in all cases: biochemical
[1] = target: T1, Kdr (Homo sapiens, UniProt P35968); assay: Kinase inhibition assay (33P transfer), Kdr; conditions: Table 3; for IC50: read-out: KDR-1
T1 construct: Kinases are expressed as either kinase domains or full length constructs; made in house
In short: (§1)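 33P-ATP transfer to coated synthetic polymer substrates; acid wash (0.5% H3PO4), scintillant, liquid scintillation count. Enzymes: His- or GST-fusion kinases from E. coli or High Five insect cells.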

[2] = target: T2, Zap-70 (Homo sapiens, UniProt P43403); assay: Kinase inhibition assay (33P transfer), Zap-70; conditions: Table 3; for IC50: read-out: Zap-1
T2 construct: Kinases are expressed as either kinase domains or full length constructs; made in house
T2 sequence (P43403 1-619): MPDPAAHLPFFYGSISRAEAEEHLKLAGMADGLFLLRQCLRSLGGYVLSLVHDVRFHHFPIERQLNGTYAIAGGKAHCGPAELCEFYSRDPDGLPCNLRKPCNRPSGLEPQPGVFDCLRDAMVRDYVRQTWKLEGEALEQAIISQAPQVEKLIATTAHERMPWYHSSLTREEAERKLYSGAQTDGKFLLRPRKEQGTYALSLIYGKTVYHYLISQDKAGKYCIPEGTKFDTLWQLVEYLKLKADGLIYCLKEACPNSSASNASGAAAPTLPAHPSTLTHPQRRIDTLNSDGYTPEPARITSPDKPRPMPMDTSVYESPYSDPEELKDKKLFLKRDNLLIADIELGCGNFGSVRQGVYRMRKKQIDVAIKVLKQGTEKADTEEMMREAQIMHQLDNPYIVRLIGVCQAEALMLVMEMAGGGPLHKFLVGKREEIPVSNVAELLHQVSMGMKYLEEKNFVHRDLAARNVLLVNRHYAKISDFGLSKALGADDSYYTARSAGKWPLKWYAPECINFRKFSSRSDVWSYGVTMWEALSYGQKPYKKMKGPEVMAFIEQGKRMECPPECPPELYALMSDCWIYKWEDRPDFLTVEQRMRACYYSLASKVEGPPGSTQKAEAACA
In short: as §1

[3] = target: T3, Lck (Homo sapiens, UniProt P06239); assay: Kinase inhibition assay (33P transfer), Lck; conditions: Table 3; for IC50: read-out: Lck-1
T3 construct: Kinases are expressed as either kinase domains or full length constructs; made in house
In short: as §1

[4] = target: T4, AKT (Homo sapiens, UniProt Q9Y243); assay: Kinase inhibition assay (33P transfer), AKT; conditions: Table 2, kinase inhibition class; for IC50: read-out: AKT3-1
T4 construct: Kinases are expressed as either kinase domains or full length constructs; made in house
In short: as §1

[5] = target: T5, Lyn (Homo sapiens, UniProt P07948); assay: Kinase inhibition assay (33P transfer), Lyn; conditions: Table 6, Lyn-1 kinase inhibition class
T5 construct: Kinases are expressed as either kinase domains or full length constructs; made in house
In short: (§2)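 Activity read as 33P incorporation from ATP into poly(Glu,Tyr) 4:1 or poly(Arg,Ser) 3:1 substrate bound to microtiter plates, measured by scintillation after acid washing. Enzymes were affinity-purified GST or polyHis fusions (kinase domain or full length) from E. coli or baculovirus; IC50 = 50% reduction in labelled phosphate.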

[6] = target: T6, PDGFRB (Homo sapiens, UniProt P09619); assay: Kinase inhibition assay (33P transfer), PDGFRB; conditions: read-out: PDGFRB-1
T6 construct: Kinases are expressed as either kinase domains or full length constructs; made in house

[7] = target: T7, FGFR1 (Homo sapiens, UniProt P11362); assay: Kinase inhibition assay (33P transfer), FGFR1; conditions: read-out: FGFR1-1
T7 construct: Kinases are expressed as either kinase domains or full length constructs; made in house

[8] = target: T8, Flt-1 (Homo sapiens, UniProt P17948); assay: Kinase inhibition assay (33P transfer), Flt-1
T8 construct: Kinases are expressed as either kinase domains or full length constructs; made in house
In short: as §2

[9] = target: T9, Tek (Homo sapiens, UniProt Q02763); assay: Kinase inhibition assay (33P transfer), Tek; conditions: read-out: Tek-1
T9 construct: Kinases are expressed as either kinase domains or full length constructs; made in house
In short: as §2

[10] = target: T10, Ret-1 (Homo sapiens, UniProt P07949); assay: Kinase inhibition assay (33P transfer), Ret; conditions: Table 6, Ret-1 kinase inhibition class
T10 construct: Kinases are expressed as either kinase domains or full length constructs; made in house

[11] = target: T11, ErbB2 (Homo sapiens, UniProt P04626); assay: Kinase inhibition assay (33P transfer), ErbB2; conditions: read-out: ErbB2-2
T11 construct: Kinases are expressed as either kinase domains or full length constructs; made in house
In short: as §2

T7 sequence (P11362 22-822, species assumed): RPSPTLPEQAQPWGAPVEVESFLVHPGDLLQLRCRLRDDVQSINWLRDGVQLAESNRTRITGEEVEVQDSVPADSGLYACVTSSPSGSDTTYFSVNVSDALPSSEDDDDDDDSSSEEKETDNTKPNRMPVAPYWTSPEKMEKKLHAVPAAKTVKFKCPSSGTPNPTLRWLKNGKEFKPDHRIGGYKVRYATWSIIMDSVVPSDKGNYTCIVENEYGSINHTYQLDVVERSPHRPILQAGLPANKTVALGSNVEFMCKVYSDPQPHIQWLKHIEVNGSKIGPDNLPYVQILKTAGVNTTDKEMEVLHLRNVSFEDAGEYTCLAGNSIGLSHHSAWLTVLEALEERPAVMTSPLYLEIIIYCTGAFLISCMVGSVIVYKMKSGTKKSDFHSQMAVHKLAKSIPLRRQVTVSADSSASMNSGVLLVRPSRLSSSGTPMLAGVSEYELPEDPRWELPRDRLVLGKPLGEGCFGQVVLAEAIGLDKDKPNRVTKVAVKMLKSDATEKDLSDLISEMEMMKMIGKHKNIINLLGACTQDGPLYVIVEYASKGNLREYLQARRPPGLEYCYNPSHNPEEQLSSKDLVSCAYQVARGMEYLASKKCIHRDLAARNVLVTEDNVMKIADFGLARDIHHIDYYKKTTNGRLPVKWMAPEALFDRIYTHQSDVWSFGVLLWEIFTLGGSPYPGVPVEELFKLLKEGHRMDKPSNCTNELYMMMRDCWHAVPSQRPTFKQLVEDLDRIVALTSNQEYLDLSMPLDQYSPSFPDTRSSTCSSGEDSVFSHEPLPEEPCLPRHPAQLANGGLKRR
T9 sequence (Q02763 23-1124, species assumed): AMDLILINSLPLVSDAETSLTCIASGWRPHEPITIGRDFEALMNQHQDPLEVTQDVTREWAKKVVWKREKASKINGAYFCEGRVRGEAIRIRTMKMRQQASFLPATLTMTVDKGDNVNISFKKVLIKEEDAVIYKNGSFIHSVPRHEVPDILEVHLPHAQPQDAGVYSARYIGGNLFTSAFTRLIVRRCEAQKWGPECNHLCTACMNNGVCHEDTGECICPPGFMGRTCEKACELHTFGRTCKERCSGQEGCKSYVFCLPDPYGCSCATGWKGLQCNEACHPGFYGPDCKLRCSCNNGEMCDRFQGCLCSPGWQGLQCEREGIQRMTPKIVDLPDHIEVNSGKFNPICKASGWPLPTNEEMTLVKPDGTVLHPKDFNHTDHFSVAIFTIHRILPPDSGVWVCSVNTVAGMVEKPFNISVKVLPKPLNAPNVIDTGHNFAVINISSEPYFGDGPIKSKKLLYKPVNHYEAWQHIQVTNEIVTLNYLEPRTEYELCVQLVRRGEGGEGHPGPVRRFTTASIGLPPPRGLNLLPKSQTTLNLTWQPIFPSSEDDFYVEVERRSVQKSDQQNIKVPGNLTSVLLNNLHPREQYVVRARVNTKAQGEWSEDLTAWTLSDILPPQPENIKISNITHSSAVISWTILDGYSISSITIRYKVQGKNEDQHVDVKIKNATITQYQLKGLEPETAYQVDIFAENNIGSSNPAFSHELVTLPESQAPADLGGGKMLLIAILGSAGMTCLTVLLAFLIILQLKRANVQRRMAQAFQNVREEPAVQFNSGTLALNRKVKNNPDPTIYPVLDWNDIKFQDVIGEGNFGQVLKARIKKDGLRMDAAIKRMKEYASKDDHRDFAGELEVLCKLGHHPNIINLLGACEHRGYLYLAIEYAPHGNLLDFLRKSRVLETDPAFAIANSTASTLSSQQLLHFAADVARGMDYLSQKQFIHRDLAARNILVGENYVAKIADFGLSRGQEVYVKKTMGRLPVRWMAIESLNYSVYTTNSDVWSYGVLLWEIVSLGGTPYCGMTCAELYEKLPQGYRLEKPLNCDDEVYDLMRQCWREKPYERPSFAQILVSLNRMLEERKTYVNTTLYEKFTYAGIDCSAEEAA
T4 sequence (Q9Y243 whole entry, the tested form may be a part): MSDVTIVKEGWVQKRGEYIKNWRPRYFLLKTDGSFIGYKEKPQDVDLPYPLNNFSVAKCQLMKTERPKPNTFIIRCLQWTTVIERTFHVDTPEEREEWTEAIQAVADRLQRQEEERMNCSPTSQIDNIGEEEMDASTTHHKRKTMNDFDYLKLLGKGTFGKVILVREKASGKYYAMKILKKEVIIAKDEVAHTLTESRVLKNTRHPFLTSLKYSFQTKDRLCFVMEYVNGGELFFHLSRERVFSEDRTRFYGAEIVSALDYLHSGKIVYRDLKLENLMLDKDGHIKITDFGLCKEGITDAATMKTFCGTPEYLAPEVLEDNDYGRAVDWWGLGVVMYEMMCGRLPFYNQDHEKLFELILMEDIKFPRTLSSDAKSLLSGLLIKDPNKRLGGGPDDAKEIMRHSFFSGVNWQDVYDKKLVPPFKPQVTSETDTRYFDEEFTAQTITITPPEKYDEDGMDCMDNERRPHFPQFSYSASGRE
T5 sequence (P07948 whole entry, species assumed, the tested form may be a part): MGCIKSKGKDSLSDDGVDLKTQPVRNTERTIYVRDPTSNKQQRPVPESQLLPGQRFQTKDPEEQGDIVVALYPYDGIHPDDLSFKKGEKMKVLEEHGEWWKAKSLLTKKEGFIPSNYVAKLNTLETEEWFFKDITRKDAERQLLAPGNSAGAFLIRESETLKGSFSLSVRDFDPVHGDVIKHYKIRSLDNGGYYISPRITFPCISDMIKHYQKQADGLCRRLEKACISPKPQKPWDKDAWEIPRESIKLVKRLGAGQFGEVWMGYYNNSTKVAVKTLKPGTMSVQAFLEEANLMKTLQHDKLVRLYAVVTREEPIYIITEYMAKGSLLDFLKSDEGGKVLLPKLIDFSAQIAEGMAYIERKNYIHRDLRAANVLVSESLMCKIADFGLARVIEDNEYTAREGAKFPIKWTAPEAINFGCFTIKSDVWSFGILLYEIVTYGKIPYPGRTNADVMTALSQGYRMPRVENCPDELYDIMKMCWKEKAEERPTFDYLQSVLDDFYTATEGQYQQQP
T3 sequence (P06239 whole entry, species assumed, the tested form may be a part): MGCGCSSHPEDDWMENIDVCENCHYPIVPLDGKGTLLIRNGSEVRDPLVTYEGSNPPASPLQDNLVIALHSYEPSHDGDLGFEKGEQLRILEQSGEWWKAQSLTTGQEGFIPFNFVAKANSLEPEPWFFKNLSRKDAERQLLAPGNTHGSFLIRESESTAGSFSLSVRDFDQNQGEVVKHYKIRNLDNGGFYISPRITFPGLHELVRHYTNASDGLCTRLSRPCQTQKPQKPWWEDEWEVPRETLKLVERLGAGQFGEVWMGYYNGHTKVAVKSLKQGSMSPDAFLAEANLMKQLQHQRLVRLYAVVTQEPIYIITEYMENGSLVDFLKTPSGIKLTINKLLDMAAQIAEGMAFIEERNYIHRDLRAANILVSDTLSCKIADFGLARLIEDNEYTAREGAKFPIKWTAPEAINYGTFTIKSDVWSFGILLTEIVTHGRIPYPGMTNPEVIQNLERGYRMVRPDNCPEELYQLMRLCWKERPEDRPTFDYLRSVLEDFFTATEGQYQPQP
T1 sequence (P35968 20-1356, species assumed): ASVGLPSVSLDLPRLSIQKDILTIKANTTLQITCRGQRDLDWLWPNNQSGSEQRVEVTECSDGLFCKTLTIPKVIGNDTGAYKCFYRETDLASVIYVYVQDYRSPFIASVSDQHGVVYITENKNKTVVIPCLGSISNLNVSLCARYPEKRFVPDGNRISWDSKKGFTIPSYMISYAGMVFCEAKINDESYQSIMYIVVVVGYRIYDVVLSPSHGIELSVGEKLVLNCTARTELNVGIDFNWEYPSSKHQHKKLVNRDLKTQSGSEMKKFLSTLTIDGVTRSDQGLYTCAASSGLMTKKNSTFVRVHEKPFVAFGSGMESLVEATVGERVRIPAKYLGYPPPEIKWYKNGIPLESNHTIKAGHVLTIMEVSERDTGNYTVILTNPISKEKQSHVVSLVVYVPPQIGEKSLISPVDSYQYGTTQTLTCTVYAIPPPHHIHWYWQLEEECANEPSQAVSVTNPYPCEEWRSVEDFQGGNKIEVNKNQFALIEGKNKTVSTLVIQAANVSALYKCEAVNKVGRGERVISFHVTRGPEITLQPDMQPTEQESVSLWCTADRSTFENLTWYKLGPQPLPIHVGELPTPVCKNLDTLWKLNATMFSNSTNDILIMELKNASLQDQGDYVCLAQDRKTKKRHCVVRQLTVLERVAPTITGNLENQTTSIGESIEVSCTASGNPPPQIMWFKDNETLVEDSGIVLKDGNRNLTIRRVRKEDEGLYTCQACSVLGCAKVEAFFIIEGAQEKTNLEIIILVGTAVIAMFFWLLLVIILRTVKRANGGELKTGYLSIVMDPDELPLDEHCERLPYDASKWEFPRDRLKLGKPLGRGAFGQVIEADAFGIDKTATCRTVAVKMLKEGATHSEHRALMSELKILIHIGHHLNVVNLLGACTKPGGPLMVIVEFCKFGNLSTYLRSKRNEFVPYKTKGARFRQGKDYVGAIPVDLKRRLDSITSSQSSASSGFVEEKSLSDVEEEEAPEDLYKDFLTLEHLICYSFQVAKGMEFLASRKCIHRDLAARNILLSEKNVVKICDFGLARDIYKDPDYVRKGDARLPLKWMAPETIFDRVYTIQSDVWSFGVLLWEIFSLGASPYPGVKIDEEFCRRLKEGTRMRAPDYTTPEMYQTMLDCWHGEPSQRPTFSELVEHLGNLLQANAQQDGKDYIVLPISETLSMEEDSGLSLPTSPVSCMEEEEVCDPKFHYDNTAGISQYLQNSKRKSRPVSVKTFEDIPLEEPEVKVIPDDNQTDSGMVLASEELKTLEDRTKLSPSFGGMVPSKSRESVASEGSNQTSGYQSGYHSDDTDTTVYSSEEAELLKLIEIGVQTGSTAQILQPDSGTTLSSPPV

## COc1ccc(Nc2ncnc(Nc3cc(OC)c(OC)c(OC)c3)n2)cn1 [Compound 28]
[1]
  KDR-1: A (A<0.4 ug/mL)
[2]
  Zap-1: E (E>4.5 ug/mL)
[3]
  Lck-1: B (B>0.4 and <2.4 ug/mL)
[4]
  AKT3-1: E (E>4.5 ug/mL)
[5]
  Lyn-1: B (B>0.4 and <2.4 ug/mL)

## COc1ccc(Nc2ncnc(Nc3cc(OC)c(OC)c(OC)c3)n2)cc1OC [Compound 36]
[1]
  IC50: < 0.968 µM
[2]
  IC50: > 10.9 µM
[6]
  IC50: < 0.968 µM
[3]
  IC50: 0.968 to 5.81 µM
[7]
  IC50: > 10.9 µM
[8]
  IC50: < 0.968 µM
[9]
  IC50: 8.47 to 10.9 µM
[4]
  IC50: > 10.9 µM
[5]
  IC50: > 10.9 µM
[10]
  IC50: > 10.9 µM

## COc1cc(Nc2ncnc(Nc3ccc(Br)cc3F)n2)cc(OC)c1OC [Compound 41]
[1]
  IC50: < 0.888 µM
[2]
  IC50: > 9.99 µM
[6]
  IC50: 0.888 to 5.33 µM
[3]
  IC50: 5.33 to 7.77 µM
[7]
  IC50: 5.33 to 7.77 µM
[8]
  IC50: 0.888 to 5.33 µM
[9]
  IC50: 7.77 to 9.99 µM
[4]
  IC50: > 9.99 µM
[5]
  IC50: < 0.888 µM
[10]
  IC50: < 0.888 µM

## COc1cc(Nc2ncnc(N(C/C=C/c3ccccc3)c3ccc(Cl)cc3)n2)cc(OC)c1OC [Compound 56]
[1]
  IC50: 0.794 to 4.76 µM
[2]
  IC50: > 8.93 µM
[6]
  IC50: > 8.93 µM
[3]
  IC50: 4.76 to 6.94 µM
[7]
  IC50: 4.76 to 6.94 µM
[8]
  IC50: 4.76 to 6.94 µM
[9]
  IC50: > 8.93 µM
[4]
  IC50: > 8.93 µM
[5]
  IC50: 0.794 to 4.76 µM
[10]
  IC50: > 8.93 µM

## COc1ccc(N(C)c2ncnc(Nc3cc(OC)c(OC)c(OC)c3)n2)cc1 [Compound 106]
[1]
  IC50: < 1.01 µM
[2]
  IC50: > 11.3 µM
[6]
  IC50: < 1.01 µM
[3]
  IC50: 6.04 to 8.81 µM
[7]
  IC50: 1.01 to 6.04 µM
[8]
  IC50: < 1.01 µM
[9]
  IC50: > 11.3 µM
[4]
  IC50: > 11.3 µM
[10]
  IC50: 1.01 to 6.04 µM

## Cc1cccc(Nc2ncnc(Nc3ccc(O)cc3)n2)c1 [Compound 107]
[1]
  IC50: 1.36 to 8.18 µM
[2]
  IC50: > 15.3 µM
[6]
  IC50: 1.36 to 8.18 µM
[3]
  IC50: 1.36 to 8.18 µM
[7]
  IC50: 1.36 to 8.18 µM
[8]
  IC50: < 1.36 µM
[9]
  IC50: > 15.3 µM
[4]
  IC50: 1.36 to 8.18 µM
[5]
  IC50: < 1.36 µM
[10]
  IC50: 1.36 to 8.18 µM

## COc1ccc(Nc2ncnc(Nc3cccc(C)c3)n2)cc1OC [Compound 108]
[1]
  IC50: 7.11 to 10.4 µM
[2]
  IC50: > 13.3 µM
[6]
  IC50: 1.19 to 7.11 µM
[3]
  IC50: 10.4 to 13.3 µM
[7]
  IC50: 1.19 to 7.11 µM
[8]
  IC50: > 13.3 µM
[9]
  IC50: > 13.3 µM
[4]
  IC50: > 13.3 µM
[5]
  IC50: < 1.19 µM

## Cc1cccc(Nc2ncnc(Nc3cccc(Br)c3)n2)c1 [Compound 109]
[11]
  IC50: 6.74 to 9.83 µM
[1]
  IC50: 6.74 to 9.83 µM
[2]
  IC50: 6.74 to 9.83 µM
[6]
  IC50: > 12.6 µM
[3]
  IC50: > 12.6 µM
[9]
  IC50: > 12.6 µM
[4]
  IC50: > 12.6 µM

## COc1ccc(Nc2ncnc(Nc3ccc(N(C)C)cc3)n2)cc1OC [Compound 114]
[1]
  IC50: < 1.09 µM
[2]
  IC50: > 12.3 µM
[6]
  IC50: > 12.3 µM
[3]
  IC50: > 12.3 µM
[7]
  IC50: > 12.3 µM
[8]
  IC50: > 12.3 µM
[9]
  IC50: > 12.3 µM
[4]
  IC50: > 12.3 µM
[10]
  IC50: 1.09 to 6.55 µM

## COc1ccc(Nc2ncnc(Nc3ccc4[nH]ccc4c3)n2)cc1OC [Compound 115]
[1]
  IC50: 1.1 to 6.62 µM
[2]
  IC50: > 12.4 µM
[6]
  IC50: > 12.4 µM
[3]
  IC50: 1.1 to 6.62 µM
[7]
  IC50: 6.62 to 9.66 µM
[8]
  IC50: 1.1 to 6.62 µM
[9]
  IC50: > 12.4 µM
[4]
  IC50: 1.1 to 6.62 µM
[5]
  IC50: 6.62 to 9.66 µM
[10]
  IC50: 1.1 to 6.62 µM

## C#Cc1cccc(Nc2ncnc(Nc3ccc(OC)c(OC)c3)n2)c1 [Compound 116]
[1]
  IC50: 6.91 to 10.1 µM
[2]
  IC50: > 13 µM
[6]
  IC50: > 13 µM
[3]
  IC50: 10.1 to 13 µM
[7]
  IC50: > 13 µM
[8]
  IC50: > 13 µM
[9]
  IC50: > 13 µM
[4]
  IC50: > 13 µM
[5]
  IC50: > 13 µM
[10]
  IC50: > 13 µM

## COc1ccc(Nc2ncnc(Nc3ccc(C)c(O)c3)n2)cc1OC [Compound 119]
[1]
  IC50: < 1.13 µM
[2]
  IC50: > 12.7 µM
[6]
  IC50: < 1.13 µM
[3]
  IC50: 1.13 to 6.79 µM
[7]
  IC50: 1.13 to 6.79 µM
[8]
  IC50: < 1.13 µM
[9]
  IC50: > 12.7 µM
[4]
  IC50: > 12.7 µM
[5]
  IC50: 1.13 to 6.79 µM
[10]
  IC50: < 1.13 µM
